According to article PMC8007111, “Novel Potent Muscarinic Receptor Antagonists: Investigation on the Nature of Lipophilic Substituents in the 5- and/or 6-Positions of the 1,4-Dioxane Nucleus” (Journal of Medicinal Chemistry, 2020):

Key:
hM4 mAChR = target: T1, hM4 mAChR (Homo sapiens, UniProt P08173); assay: [3H]NMS inhibition radioligand binding, hM4 in CHO-K1 cell membranes; details: [3H]NMS, CHO-K1 cell membranes; mean ± S.E.M.
T1 construct: expressed in transfected cells; host or cells: CHO-K1 (membrane preparation)
T1 sequence (P08173 1-479): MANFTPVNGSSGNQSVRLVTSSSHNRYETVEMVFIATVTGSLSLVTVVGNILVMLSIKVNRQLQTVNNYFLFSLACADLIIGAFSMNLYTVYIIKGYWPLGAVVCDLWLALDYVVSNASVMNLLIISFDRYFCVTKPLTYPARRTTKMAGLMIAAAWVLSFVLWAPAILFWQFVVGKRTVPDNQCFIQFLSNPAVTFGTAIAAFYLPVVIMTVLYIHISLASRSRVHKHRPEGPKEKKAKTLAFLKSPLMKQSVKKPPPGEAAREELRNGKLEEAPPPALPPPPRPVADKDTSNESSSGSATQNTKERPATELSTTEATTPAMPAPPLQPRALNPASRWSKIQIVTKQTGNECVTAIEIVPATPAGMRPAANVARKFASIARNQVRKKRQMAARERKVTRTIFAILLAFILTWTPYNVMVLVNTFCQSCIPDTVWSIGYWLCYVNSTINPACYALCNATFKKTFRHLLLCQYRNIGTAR

[1] = test system: MSCs from mouse bone marrow; assay: Carbachol-induced MSC viability (MTS assay); type: cell-based; details: pre-incubation 1 h, then carbachol 10^–10 M for 24 h
Protocol: It is well established that bone marrow MSC behavior is influenced by a variety of signaling systems. In context, cholinergic intramural stimuli and, in particular, muscarinic signals orchestrate MSCs viability and commitment.[11],[12] Considering also the pluripotent MSC nature and their contribution to bone, blood, and systemic homeostasis,[53] viability studies on MSCs were performed to determine the functional profile of 3b, the most interesting compound in this series. […] Successively, the efficacy of 3b in contrasting cell viability induced by the well-known mAChR agonist carbachol was evaluated. […] Further research on the intracellular mechanistic outcomes of 3b on MSCs remains mandatory.
The in vitro studies were performed by using bone marrow MSCs as a model. Male BALB/c mice (Harlan Italy SrL, Milano, Italy) (8 weeks old; body weight ∼24.5 g; n = 4) were kept in a laminar-flow cage in a standardized environmental condition. Food (Harlan, Italy), and water was supplied ad libitum. Mice were sacrificed by CO2 narcosis and cervical dislocation in accordance with the recommendations of the Italian Ethical Committee and under the supervision of authorized investigators. Long bones (femurs and tibiae) were dissected and cleaned from skin, muscle, and connective tissues as much as possible. Bones were placed in a culture dish containing sterile PBS. Then, the bone cavity was flushed in DMEM with a syringe in order to collect the bone marrow cells into a 50 mL sterile tube. […] After 2 weeks of initiating culture, cells were washed with PBS, detached by trypsinization, counted, and plated at the density of 5,000 cells/well in 96 culture plates (Costar Corp., Milano, Italy) in DMEM containing 10% HIFCS, penicillin, and streptomycin.
MSCs were treated with compound 3b (from 10^–4 to 10^–10 M) for 24 h. […] At the end of each procedure, the MSCs viability was measured by MTS assay. […] The quantity of the formazan product was directly proportional to the number of living cells in culture. The colored formazan was measured by reading the absorbance at 490 nm using a […] plate reader.

C[N+](C)(C)C[C@@H]1COC[C@](c2ccccc2)(C2CCCCC2)O1.[I-] (relative stereo) [3b, 1-((2R*,6R*)-6-Cyclohexyl-6-phenyl-1,4-dioxan-2-yl)-N,N,N-trimethylmethanaminium Iodide]
pKi hM4 (hM4 mAChR): 9.03 ± 0.16 | effect on carbachol-induced MSC viability [1]: able to contrast the increase of carbachol-induced MSC viability
